Measurements from PMC4051630, “A Comparison of Protein Kinases Inhibitor Screening Methods Using Both Enzymatic Activity and Binding Affinity Determination” (PLoS ONE, 2014).

Legend:
Assay in all cases: Differential Scanning Fluorimetry (DSF) Tm shift
Assay type in all cases: binding
CDK2 + Cyclin A = molecular target: T1, CDK2 + Cyclin A (Homo sapiens, UniProt P24941); settings: CDK2 + Cyclin A; 2 µM protein, 10 µM inhibitor; average of 3 experiments, each in duplicate
T1 construct: CDK2 (P24941); 1–299; His-tag; made in house; host or cells: Escherichia coli

PAK7 Catalytic Domain = molecular target: T2, PAK7 Catalytic Domain (Homo sapiens, UniProt Q9P286); settings: 2 µM protein, 10 µM inhibitor, average of 3 experiments, each in duplicate
T2 construct: For all of them, we expressed and purified the catalytic domain separately; His-tag; made in house; host or cells: Escherichia coli

FES Catalytic Domain = molecular target: T3, FES Catalytic Domain (Homo sapiens, UniProt P07332); settings: 2 µM protein, 10 µM inhibitor, average of 3 experiments, each in duplicate
T3 construct: For all of them, we expressed and purified the catalytic domain separately; His-tag; made in house; host or cells: Escherichia coli

[1] = molecular target: SRC Catalytic Domain+SH2+SH3 (Homo sapiens, UniProt P12931); settings: 2 µM protein, 10 µM inhibitor, average of 3 experiments, each in duplicate
FES Catalytic Domain+SH2 = molecular target: T4, FES Catalytic Domain+SH2 (Homo sapiens, UniProt P07332); settings: 2 µM protein, 10 µM inhibitor, average of 3 experiments, each in duplicate
T4 construct: for 8, we also made a longer version containing one or more additional domains; His-tag; made in house; host or cells: Escherichia coli

AKT3 Catalytic Domain = molecular target: T5, AKT3 Catalytic Domain (Homo sapiens, UniProt Q9Y243); settings: 2 µM protein, 10 µM inhibitor, average of 3 experiments, each in duplicate
T5 construct: AKT3 (Q9Y243); CD; His-tag; made in house; host or cells: Escherichia coli

SRC Catalytic Domain = SRC Catalytic Domain (Homo sapiens, UniProt P12931); set-up: For all of them, we expressed and purified the catalytic domain separately; His-tag; made in house; host or cells: Escherichia coli; settings: 2 µM protein, 10 µM inhibitor, average of 3 experiments, each in duplicate
STK3 Catalytic Domain = molecular target: T6, STK3 Catalytic Domain (Homo sapiens, UniProt Q13188); settings: 2 µM protein, 10 µM inhibitor, average of 3 experiments, each in duplicate
T6 construct: For all of them, we expressed and purified the catalytic domain separately; His-tag; made in house; host or cells: Escherichia coli
T6 sequence (Q13188 27-278 limits assumed): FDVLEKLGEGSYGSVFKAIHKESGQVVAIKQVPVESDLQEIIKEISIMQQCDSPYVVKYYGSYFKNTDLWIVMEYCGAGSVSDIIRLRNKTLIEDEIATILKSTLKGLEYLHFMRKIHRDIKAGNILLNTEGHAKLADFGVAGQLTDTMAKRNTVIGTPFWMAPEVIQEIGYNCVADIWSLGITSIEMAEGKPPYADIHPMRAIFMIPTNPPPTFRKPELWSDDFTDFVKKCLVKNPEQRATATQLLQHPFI

DMPK Catalytic Domain = molecular target: T7, DMPK Catalytic Domain (Homo sapiens, UniProt Q09013); settings: 2 µM protein, 10 µM inhibitor, average of 3 experiments, each in duplicate
T7 construct: For all of them, we expressed and purified the catalytic domain separately; His-tag; made in house; host or cells: Escherichia coli
T7 sequence (Q09013 71-339 limits assumed): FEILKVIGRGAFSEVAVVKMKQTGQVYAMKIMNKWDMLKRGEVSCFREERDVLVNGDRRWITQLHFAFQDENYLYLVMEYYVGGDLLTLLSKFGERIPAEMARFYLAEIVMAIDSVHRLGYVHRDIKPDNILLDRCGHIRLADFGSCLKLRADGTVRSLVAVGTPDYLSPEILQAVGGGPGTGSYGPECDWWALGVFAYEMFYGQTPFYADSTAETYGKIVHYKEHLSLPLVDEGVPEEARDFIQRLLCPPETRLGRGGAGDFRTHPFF

[2] = molecular target: T8, PAK4 Catalytic Domain+PBD (Homo sapiens, UniProt O96013); settings: 2 µM protein, 10 µM inhibitor, average of 3 experiments, each in duplicate
T8 construct: for 8, we also made a longer version containing one or more additional domains; His-tag; made in house; host or cells: Escherichia coli

[3] = molecular target: T9, STK3 Catalytic domain+SARAH (Homo sapiens, UniProt Q13188); settings: 2 µM protein, 10 µM inhibitor, average of 3 experiments, each in duplicate
T9 construct: for 8, we also made a longer version containing one or more additional domains; His-tag; made in house; host or cells: Escherichia coli
T9 sequence (Q13188 1-491): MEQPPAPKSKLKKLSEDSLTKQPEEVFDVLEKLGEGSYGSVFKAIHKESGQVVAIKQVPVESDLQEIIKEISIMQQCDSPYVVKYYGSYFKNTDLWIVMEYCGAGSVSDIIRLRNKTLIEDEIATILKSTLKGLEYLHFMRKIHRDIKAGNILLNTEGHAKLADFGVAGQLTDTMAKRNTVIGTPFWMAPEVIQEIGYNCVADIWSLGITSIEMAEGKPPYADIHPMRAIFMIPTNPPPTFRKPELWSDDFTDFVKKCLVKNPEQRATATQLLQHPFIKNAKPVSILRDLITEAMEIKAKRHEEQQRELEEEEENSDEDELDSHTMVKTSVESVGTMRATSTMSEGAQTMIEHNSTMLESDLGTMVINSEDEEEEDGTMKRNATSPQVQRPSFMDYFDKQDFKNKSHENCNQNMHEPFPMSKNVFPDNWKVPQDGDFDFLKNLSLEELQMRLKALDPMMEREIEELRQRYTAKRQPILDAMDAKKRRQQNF

CDK2 + Cyclin E = molecular target: T10, CDK2 + Cyclin E (Homo sapiens, UniProt P24941); settings: CDK2 + Cyclin E; 2 µM protein, 10 µM inhibitor; average of 3 experiments, each in duplicate
T10 construct: CDK2 (P24941); 1–299; His-tag; made in house; host or cells: Escherichia coli

PAK4 Catalytic Domain = molecular target: T11, PAK4 Catalytic Domain (Homo sapiens, UniProt O96013); settings: 2 µM protein, 10 µM inhibitor, average of 3 experiments, each in duplicate
T11 construct: For all of them, we expressed and purified the catalytic domain separately; His-tag; made in house; host or cells: Escherichia coli

CHK2 Catalytic Domain = molecular target: T12, CHK2 Catalytic Domain (Homo sapiens, UniProt O96017); settings: 2 µM protein, 10 µM inhibitor, average of 3 experiments, each in duplicate
T12 construct: For all of them, we expressed and purified the catalytic domain separately; His-tag; made in house; host or cells: Escherichia coli

FAK2 Catalytic Domain = molecular target: T13, FAK2 Catalytic Domain (Homo sapiens, UniProt Q14289); settings: 2 µM protein, 10 µM inhibitor, average of 3 experiments, each in duplicate
T13 construct: For all of them, we expressed and purified the catalytic domain separately; His-tag; made in house; host or cells: Escherichia coli
T13 sequence (Q14289 425-683 limits assumed): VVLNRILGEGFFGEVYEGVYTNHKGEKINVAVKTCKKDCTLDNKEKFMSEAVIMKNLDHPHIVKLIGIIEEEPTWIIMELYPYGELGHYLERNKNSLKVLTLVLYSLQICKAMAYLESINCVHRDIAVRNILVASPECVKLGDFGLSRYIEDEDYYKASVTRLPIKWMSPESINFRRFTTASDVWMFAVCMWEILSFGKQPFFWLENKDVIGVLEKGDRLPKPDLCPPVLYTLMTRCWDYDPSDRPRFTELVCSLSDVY

T5 sequence (Q9Y243 122-479): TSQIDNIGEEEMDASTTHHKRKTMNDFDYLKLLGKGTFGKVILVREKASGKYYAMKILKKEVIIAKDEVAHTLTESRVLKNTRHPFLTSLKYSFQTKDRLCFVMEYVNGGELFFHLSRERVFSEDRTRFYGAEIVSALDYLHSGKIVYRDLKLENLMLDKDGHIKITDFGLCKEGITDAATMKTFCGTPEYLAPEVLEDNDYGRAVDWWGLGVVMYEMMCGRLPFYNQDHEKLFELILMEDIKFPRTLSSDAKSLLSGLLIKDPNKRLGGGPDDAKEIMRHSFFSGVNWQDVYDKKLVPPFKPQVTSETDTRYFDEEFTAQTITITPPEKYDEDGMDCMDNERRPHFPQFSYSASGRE
T12 sequence (O96017 220-486 limits assumed): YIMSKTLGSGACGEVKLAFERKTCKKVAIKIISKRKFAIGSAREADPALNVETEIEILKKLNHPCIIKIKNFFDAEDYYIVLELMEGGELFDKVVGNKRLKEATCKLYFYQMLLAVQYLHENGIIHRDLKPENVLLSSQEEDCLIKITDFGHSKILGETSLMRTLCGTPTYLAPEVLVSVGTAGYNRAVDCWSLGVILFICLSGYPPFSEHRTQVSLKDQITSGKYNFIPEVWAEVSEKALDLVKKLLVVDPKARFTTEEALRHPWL
T4 sequence (P07332 448-822 limits assumed): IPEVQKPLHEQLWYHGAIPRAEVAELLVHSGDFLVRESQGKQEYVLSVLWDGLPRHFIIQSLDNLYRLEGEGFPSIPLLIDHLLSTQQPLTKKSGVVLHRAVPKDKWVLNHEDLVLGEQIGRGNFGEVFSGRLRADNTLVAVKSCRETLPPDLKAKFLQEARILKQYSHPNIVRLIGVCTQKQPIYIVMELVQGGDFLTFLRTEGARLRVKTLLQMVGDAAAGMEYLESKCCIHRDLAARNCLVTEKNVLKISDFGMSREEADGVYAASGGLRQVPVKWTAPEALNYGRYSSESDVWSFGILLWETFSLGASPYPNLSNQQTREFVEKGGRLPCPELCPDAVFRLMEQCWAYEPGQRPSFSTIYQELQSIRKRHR
T3 sequence (P07332 561-822 limits assumed): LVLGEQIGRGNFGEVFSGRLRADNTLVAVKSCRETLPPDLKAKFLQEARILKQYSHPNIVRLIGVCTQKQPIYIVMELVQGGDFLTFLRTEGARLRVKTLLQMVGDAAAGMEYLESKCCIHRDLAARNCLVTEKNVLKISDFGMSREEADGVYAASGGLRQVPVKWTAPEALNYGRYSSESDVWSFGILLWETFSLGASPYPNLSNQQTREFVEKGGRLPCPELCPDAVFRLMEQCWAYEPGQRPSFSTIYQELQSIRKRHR
T8 sequence (O96013 whole entry, the tested form may be a part): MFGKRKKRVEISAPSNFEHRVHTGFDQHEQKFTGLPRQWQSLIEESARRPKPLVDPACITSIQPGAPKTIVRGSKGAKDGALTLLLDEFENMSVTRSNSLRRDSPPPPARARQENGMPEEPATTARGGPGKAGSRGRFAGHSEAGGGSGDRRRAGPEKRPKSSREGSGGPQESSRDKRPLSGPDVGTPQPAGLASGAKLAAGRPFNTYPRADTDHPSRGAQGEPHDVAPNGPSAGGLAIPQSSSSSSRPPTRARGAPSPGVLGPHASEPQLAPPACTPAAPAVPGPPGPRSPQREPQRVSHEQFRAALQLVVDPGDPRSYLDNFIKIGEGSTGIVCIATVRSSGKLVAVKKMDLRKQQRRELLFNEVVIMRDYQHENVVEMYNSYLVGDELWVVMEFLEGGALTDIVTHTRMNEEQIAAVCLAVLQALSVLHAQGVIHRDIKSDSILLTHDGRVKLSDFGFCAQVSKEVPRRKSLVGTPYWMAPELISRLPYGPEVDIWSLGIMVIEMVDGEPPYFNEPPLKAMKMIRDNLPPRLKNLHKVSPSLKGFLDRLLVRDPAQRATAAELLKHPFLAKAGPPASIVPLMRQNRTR
T2 sequence (Q9P286 449-700 limits assumed): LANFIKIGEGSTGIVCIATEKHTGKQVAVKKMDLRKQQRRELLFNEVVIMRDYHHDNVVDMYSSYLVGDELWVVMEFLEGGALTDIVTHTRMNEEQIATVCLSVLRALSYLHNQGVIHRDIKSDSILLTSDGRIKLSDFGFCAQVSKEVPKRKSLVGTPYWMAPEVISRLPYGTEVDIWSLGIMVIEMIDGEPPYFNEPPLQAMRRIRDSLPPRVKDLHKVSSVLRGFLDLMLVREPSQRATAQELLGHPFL
T11 sequence (O96013 321-572 limits assumed): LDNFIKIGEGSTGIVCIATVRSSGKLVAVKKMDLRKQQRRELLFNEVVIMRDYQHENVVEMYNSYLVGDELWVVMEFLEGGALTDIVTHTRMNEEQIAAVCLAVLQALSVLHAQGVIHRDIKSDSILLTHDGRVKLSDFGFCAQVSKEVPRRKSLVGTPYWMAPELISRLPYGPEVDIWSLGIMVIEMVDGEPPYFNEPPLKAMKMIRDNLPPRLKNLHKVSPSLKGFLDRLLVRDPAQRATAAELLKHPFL
Sequence of SRC Catalytic Domain (P12931 270-523 limits assumed): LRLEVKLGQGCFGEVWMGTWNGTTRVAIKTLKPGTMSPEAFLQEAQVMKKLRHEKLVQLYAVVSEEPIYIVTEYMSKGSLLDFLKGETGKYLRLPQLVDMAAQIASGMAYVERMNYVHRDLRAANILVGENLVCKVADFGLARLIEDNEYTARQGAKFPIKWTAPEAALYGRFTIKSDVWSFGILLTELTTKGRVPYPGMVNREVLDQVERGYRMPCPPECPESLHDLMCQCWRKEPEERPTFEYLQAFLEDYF
Sequence of SRC Catalytic Domain+SH2+SH3 (P12931 84-523 limits assumed): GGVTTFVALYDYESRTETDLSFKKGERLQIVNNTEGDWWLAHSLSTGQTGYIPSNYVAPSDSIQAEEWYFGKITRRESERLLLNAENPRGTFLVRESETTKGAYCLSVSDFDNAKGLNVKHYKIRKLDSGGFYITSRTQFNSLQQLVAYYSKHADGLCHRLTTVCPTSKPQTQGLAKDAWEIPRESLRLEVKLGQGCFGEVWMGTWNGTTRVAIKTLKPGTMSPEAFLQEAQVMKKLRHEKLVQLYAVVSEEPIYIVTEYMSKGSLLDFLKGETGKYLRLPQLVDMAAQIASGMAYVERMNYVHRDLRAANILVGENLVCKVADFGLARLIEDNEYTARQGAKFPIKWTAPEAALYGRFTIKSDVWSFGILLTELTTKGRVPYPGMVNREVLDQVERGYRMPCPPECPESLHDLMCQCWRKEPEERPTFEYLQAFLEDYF

Compound	Melting temperature (Tm) shift (CDK2 + Cyclin A)	Melting temperature (Tm) shift (PAK7 Catalytic Domain)	Melting temperature (Tm) shift (FES Catalytic Domain)	Melting temperature (Tm) shift [1]	Melting temperature (Tm) shift (FES Catalytic Domain+SH2)	Melting temperature (Tm) shift (AKT3 Catalytic Domain)	Melting temperature (Tm) shift (SRC Catalytic Domain)	Melting temperature (Tm) shift (STK3 Catalytic Domain)	Melting temperature (Tm) shift (DMPK Catalytic Domain)	Melting temperature (Tm) shift [2]	Melting temperature (Tm) shift [3]	Melting temperature (Tm) shift (CDK2 + Cyclin E)	Melting temperature (Tm) shift (PAK4 Catalytic Domain)	Melting temperature (Tm) shift (CHK2 Catalytic Domain)	Melting temperature (Tm) shift (FAK2 Catalytic Domain)
c1cc(-c2cnn3cc(-c4ccc(OCCN5CCCCC5)cc4)cnc23)ccn1 [AMPK Inhibitor, Compound C]	1.0 degrees Celcius	0.5 degrees Celcius	1.2 degrees Celcius	0.6 degrees Celcius	0.4 degrees Celcius	0.3 degrees Celcius	0.5 degrees Celcius	0.3 degrees Celcius	1.5 degrees Celcius	0.8 degrees Celcius	0.4 degrees Celcius	0.5 degrees Celcius	0.7 degrees Celcius	1.1 degrees Celcius	0.1 degrees Celcius
CCCCc1c(-c2ccc(O)cc2)[nH]c2nccnc12 [Aloisine A, RP107, Aloisine A]	2.5 degrees Celcius	1.2 degrees Celcius	0.9 degrees Celcius	1.1 degrees Celcius	0.5 degrees Celcius	0.1 degrees Celcius	1.5 degrees Celcius	1.6 degrees Celcius	1.4 degrees Celcius	1.3 degrees Celcius	1.4 degrees Celcius	1.4 degrees Celcius	1.3 degrees Celcius	2.7 degrees Celcius	1.2 degrees Celcius
N#CCCc1ccc2c(c1)-c1[nH]c3ccc([N+](=O)[O-])cc3c1CC(=O)N2 [Alsterpaullone, 2-Cyanoethyl]	0.5 degrees Celcius	1.3 degrees Celcius	1.3 degrees Celcius	0.3 degrees Celcius	0.3 degrees Celcius	0.1 degrees Celcius	0.2 degrees Celcius	1.7 degrees Celcius	3.4 degrees Celcius	0.3 degrees Celcius	1.5 degrees Celcius	0.5 degrees Celcius	0.9 degrees Celcius	1.9 degrees Celcius	0.6 degrees Celcius
O=C1Cc2c([nH]c3ccc([N+](=O)[O-])cc23)-c2ccccc2N1 [Alsterpaullone]	0.4 degrees Celcius	0.3 degrees Celcius	0.3 degrees Celcius	0.2 degrees Celcius	0.1 degrees Celcius	0.1 degrees Celcius	0.0 degrees Celcius	0.3 degrees Celcius	1.8 degrees Celcius	0.3 degrees Celcius	0.7 degrees Celcius	0.2 degrees Celcius	0.2 degrees Celcius	0.9 degrees Celcius	0.4 degrees Celcius
O=C1NC(=O)C(c2c[nH]c3ccccc23)=C1c1c[nH]c2ccccc12 [Bisindolylmaleimide IV]	0.9 degrees Celcius	0.1 degrees Celcius	0.5 degrees Celcius	0.0 degrees Celcius	0.9 degrees Celcius	0.0 degrees Celcius	0.3 degrees Celcius	0.9 degrees Celcius	2.7 degrees Celcius	0.0 degrees Celcius	2.0 degrees Celcius	0.7 degrees Celcius	0.4 degrees Celcius	4.1 degrees Celcius	0.1 degrees Celcius
CCCCn1c2ccc(O)cc2c2c3c(c(-c4ccccc4Cl)cc21)C(=O)NC3=O [Wee1 Inhibitor II]	0.1 degrees Celcius	0.3 degrees Celcius	0.0 degrees Celcius	0.2 degrees Celcius	0.2 degrees Celcius	0.1 degrees Celcius	0.3 degrees Celcius	–	0.6 degrees Celcius	1.0 degrees Celcius	1.2 degrees Celcius	0.8 degrees Celcius	0.5 degrees Celcius	0.1 degrees Celcius	0.9 degrees Celcius
